Data published in patent publication US11028095B2, “Spiro-lactam and bis-spiro-lactam NMDA receptor modulators and uses thereof” (Aptinyx Inc., priority 2016, dated 2021).
Where two headings read alike, the source gives them in different places.

What was measured:
Type in all cases: biochemical
[1] = biological target: T1, NMDAR2A expressing HEK cell membranes (Homo sapiens, UniProt Q12879); assay: NMDAR agonist assay, [3H]MK-801 binding, NMDAR2A; conditions: 50 μM glutamate; for EC50: [3H]MK-801 binding, read-out: NMDAR2A: log EC50 (converted)
T1 construct: expressed in transfected cells; host or cells: HEK cells (membrane extract)
Procedure: (§1) (nonequilibrium conditions).
(§2) The baseline value was determined from the best fit curve of the DPM values modeled using the GraphPad program and the log(agonist) vs. response(three parameters) algorithm was then subtracted from all points in the dataset.

[2] = biological target: T2, NMDAR2B expressing HEK cell membranes (Homo sapiens, UniProt Q13224); assay: NMDAR agonist assay, [3H]MK-801 binding, NMDAR2B; conditions: 50 μM glutamate; for EC50: [3H]MK-801 binding, read-out: NMDAR2B log EC50 (converted)
T2 construct: expressed in transfected cells; host or cells: HEK cells (membrane extract)
T2 sequence (Q13224 27-1484, other chains not shown): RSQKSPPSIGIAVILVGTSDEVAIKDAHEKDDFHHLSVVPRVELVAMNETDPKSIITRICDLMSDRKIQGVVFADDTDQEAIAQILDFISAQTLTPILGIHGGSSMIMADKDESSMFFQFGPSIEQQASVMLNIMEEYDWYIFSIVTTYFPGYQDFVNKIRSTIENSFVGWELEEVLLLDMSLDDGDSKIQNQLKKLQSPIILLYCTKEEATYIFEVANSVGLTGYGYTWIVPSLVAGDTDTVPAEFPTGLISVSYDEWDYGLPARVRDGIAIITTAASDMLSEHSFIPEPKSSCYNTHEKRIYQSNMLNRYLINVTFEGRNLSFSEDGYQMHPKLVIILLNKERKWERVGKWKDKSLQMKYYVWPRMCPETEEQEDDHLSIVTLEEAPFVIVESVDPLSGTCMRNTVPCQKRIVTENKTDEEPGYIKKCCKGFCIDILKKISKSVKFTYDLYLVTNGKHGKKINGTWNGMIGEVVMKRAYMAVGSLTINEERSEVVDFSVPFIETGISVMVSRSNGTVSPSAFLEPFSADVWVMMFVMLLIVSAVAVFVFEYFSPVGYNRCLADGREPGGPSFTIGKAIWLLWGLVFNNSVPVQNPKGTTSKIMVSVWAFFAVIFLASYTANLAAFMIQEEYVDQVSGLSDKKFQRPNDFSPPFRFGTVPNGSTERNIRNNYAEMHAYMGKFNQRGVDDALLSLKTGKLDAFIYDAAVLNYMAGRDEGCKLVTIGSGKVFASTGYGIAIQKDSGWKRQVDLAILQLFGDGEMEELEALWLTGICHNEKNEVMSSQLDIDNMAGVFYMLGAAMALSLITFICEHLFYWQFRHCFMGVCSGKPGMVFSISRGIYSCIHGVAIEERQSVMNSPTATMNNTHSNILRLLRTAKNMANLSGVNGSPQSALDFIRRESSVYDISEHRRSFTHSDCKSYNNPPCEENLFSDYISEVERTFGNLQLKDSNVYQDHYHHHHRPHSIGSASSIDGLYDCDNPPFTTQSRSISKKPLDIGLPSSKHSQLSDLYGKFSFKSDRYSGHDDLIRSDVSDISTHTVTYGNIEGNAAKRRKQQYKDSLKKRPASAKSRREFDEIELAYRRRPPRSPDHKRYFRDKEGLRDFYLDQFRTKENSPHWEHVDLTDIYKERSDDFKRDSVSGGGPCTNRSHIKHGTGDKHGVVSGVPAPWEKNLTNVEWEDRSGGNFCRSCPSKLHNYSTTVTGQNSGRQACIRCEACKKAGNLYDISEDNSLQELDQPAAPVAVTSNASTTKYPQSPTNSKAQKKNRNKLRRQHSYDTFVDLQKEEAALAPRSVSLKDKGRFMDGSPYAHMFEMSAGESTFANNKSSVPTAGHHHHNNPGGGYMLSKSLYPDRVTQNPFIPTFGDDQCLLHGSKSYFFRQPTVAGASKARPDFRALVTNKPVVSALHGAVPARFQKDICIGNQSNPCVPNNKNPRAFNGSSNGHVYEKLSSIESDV
Procedure: as §1, §2

[3] = biological target: T3, NMDAR2A expressing HEK cell membranes (Homo sapiens, UniProt Q05586+Q12879); assay: NMDAR agonist assay, [3H]MK-801 binding, NMDAR2A; conditions: [3H]MK-801 binding
T3 construct: expressed in transfected cells; host or cells: HEK cells (membrane extract)
T3 sequence (Q12879 23-1464, other chains not shown): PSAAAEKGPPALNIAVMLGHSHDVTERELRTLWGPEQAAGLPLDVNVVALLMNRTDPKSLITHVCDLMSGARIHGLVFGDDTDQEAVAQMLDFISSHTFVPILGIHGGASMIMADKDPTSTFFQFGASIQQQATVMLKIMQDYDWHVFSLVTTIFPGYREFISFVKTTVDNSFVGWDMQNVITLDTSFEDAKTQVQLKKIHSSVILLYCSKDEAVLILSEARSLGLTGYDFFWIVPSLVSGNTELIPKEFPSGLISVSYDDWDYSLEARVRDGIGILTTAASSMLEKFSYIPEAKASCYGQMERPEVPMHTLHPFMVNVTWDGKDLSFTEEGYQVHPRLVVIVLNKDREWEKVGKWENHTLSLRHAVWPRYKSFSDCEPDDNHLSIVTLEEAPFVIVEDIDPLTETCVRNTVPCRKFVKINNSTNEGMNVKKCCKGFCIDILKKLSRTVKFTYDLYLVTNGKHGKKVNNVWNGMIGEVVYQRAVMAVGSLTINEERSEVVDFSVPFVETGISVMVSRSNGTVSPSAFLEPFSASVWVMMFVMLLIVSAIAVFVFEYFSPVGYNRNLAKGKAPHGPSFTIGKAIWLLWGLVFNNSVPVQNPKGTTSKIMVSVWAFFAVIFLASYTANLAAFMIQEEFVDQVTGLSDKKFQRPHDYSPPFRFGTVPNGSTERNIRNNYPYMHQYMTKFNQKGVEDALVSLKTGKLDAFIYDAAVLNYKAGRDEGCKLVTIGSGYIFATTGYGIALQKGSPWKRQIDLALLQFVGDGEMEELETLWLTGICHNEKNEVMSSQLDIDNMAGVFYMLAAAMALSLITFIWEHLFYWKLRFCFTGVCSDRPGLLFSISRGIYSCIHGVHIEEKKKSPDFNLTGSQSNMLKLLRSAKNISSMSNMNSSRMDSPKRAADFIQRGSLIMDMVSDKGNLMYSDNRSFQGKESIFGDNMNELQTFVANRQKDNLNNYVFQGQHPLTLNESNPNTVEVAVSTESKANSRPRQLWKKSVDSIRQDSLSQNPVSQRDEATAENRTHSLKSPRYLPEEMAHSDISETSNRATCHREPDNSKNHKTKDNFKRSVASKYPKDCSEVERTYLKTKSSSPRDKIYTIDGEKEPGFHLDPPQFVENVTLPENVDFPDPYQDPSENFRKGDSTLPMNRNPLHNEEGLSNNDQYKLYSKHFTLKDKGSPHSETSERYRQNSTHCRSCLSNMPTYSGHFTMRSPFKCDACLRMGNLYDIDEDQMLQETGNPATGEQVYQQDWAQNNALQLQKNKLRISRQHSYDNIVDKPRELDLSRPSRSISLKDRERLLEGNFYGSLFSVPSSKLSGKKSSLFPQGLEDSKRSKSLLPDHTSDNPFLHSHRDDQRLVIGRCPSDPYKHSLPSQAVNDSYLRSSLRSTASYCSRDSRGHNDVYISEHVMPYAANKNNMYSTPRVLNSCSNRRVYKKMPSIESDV
Procedure: as §1, §2

[4] = biological target: T4, NMDAR2B expressing HEK cell membranes (Homo sapiens, UniProt Q05586+Q13224); assay: NMDAR agonist assay, [3H]MK-801 binding, NMDAR2B; conditions: for EC50: [3H]MK-801 binding; for Emax: relative to 1 mM glycine, read-out: NMDAR2B: % maximal [3H]MK-801 binding relative to 1 mM glycine
T4 construct: expressed in transfected cells; host or cells: HEK cells (membrane extract)
T4 sequence (Q13224 27-1484, other chains not shown): as the sequence (Q13224 27-1484, other chains not shown) above
Procedure: as §1, §2

[5] = NMDAR2A: log EC50, 50 μM glutamate
[6] = NMDAR2B: log EC50, 50 μM glutamate
[7] = 50 μM glutamate, read-out: NMDAR2B log EC50 (converted)
[8] = 50 μM glutamate, read-out: NMDAR2A: log EC50 (converted)

Row | Compound | NMDAR2A: % maximal [3H]MK-801 binding relative to 1 mM glycine [1] | EC50 [2] [nM] | NMDAR2B: % maximal [3H]MK-801 binding relative to 1 mM glycine [2] | EC50 [1] [nM] | EC50 [3, 5] [nM] | EC50 [4, 6] [nM] | EC50 [4, 7] [nM] | EC50 [3, 8] [nM] | Emax ([4]; 50 μM glutamate) [%]
1 | CC(C)(C)OC(=O)N1C2(CCC13CNC3=O)CNC2=O (single isomer, unassigned) [AA-2, tert-butyl 1,7-dioxo-2,5,8-triazadispiro[3.1.36.24]undecane-5-carboxylate] | + (<100%=+) | > 100 | − (−=0) |  |  |  |  |  | 
2 | CC(C)(C)OC(=O)N1C2(CCC13CNC3=O)CNC2=O (single isomer, unassigned) [AA-3, tert-butyl 1,7-dioxo-2,5,8-triazadispiro[3.1.36.24]undecane-5-carboxylate] | − (−=0) | > 100 | − (−=0) | > 100 |  |  |  |  | 
3 | CN1C2(CCC13CNC3=O)CNC2=O (single isomer, unassigned) [AB-1, 5-methyl-2,5,8-triazadispiro[3.1.36.24]undecane-1,7-dione] | + (<100%=+) |  | − (−=0) |  | < 1 | > 100 |  |  | 
4 | CC(C)C(=O)N1C2(CCC13CNC3=O)CNC2=O (single isomer, unassigned) [AI, 5-isobutyryl-2,5,8-triazadispiro[3.1.36.24]undecane-1,7-dione] | + (<100%=+) |  | − (−=0) | < 1 |  |  | > 100 |  | 
5 | O=C1NCC12CCC1(CNC1=O)N2 (single isomer, unassigned) [AK, 2,5,8-triazadispiro[3.1.36.24]undecane-1,7-dione] | − (−=0) |  | − (−=0) |  | > 100 | > 100 |  |  | 
6 | C[C@@H](O)[C@H](NC(=O)C1CCC2(CNC2=O)N1Cc1ccccc1)C(N)=O (single isomer, unassigned) [AL-2] | + (<100%=+) |  | − (−=0) |  |  |  | > 100 |  | 
7 | CC(C)C(=O)N1C(C(=O)N[C@H](C(N)=O)[C@@H](C)O)CCC12CNC2=O (single isomer, unassigned) [AR] | − (−=0) |  | − (−=0) |  |  |  | > 100 | > 100 | 
8 | CC(C)(C)OC(=O)N1CC2(CN(OCc3ccccc3)C2=O)CC12CN(OCc1ccccc1)C2=O (single isomer, unassigned) [AV, tert-butyl 2,8-bis(benzyloxy)-1,7-dioxo-2,8,10-triazadispiro[3.1.36.24]undecane-10-carboxylate] | − (−=0) |  | + (<100%=+) |  |  |  | < 1 | > 100 | 
9 | CC(C)(C)OC(=O)N1CC2(CN(OCc3ccccc3)C2=O)CC12CN(OCc1ccccc1)C2=O (single isomer, unassigned) [AX, tert-butyl 2,8-bis(benzyloxy)-1,7-dioxo-2,8,10-triazadispiro[3.1.36.24]undecane-10-carboxylate] | + (<100%=+) |  | − (−=0) |  |  |  | > 100 | < 1 | 
10 | CC(C)CN1C(C(=O)N[C@H](C(N)=O)[C@@H](C)O)CCC12CNC2=O (single isomer, unassigned) [BB] | + (<100%=+) |  | + (<100%=+) |  |  |  | < 1 |  | 
11 | C[C@@H](O)[C@H](NC(=O)C1CCC2(CNC2=O)N1C)C(N)=O (single isomer, unassigned) [BD] | + (<100%=+) | < 1 | + (<100%=+) |  |  |  |  | < 1 | 
12 | CNC(=O)[C@@H](NCC1CCC2(CN(OCc3ccccc3)C2=O)N1C(=O)OC(C)(C)C)[C@@H](C)O (single isomer, unassigned) [BN] |  | > 100 |  | > 100 |  |  |  |  | 
13 | C[C@@H](O)[C@H](NCC1CCC2(CN(OCc3ccccc3)C2=O)N1C(=O)OC(C)(C)C)C(=O)N(C)C (single isomer, unassigned) [BR] | + (<100%=+) |  | ++ (>100%=++) |  |  |  |  | < 1 | 
14 | C[C@@H](O)[C@H](NC1CN(C(=O)OC(C)(C)C)C2(CNC2=O)C1)C(N)=O (single isomer, unassigned) [CH] | − (−=0) | > 100 | − (−=0) |  |  |  |  | > 100 | 
15 | CC(O)C(NCC1CCC2(CN(OCc3ccccc3)C2=O)N1)C(N)=O (single isomer, unassigned) [CL] | + (<100%=+) | < 1 | + (<100%=+) |  |  |  |  | < 1 | 
16 | CC(O)C(NCC1CCC2(CNC2=O)N1)C(N)=O (single isomer, unassigned) [CN] | ++ (>100%=++) | < 1 | + (<100%=+) | < 1 |  |  |  |  | 
17 | CNC(=O)C(NCC1CCC2(CN(OCc3ccccc3)C2=O)N1)C(C)O (single isomer, unassigned) [CP] |  | < 1 |  | < 1 |  |  |  |  | 
18 | CNC(=O)C(NCC1CCC2(CNC2=O)N1)C(C)O (single isomer, unassigned) [CR] | + (<100%=+) | < 1 | ++ (>100%=++) |  |  |  |  | < 1 | 
19 | CC(O)C(C(N)=O)N(C)CC1CCC2(CN(OCc3ccccc3)C2=O)N1 (single isomer, unassigned) [CS] | − (−=0) | < 1 | + (<100%=+) |  |  |  |  | > 100 | 
20 | CC(O)C(C(N)=O)N(C)CC1CCC2(CN(OCc3ccccc3)C2=O)N1 (single isomer, unassigned) [CT] | + (<100%=+) |  |  |  |  |  | < 1 | < 1 | < 100
21 | CC(O)C(C(N)=O)N(C)CC1CCC2(CNC2=O)N1 (single isomer, unassigned) [CU] | − (−=0) |  |  |  |  |  |  | > 100 | > 100
22 | CNC(=O)C(C(C)O)N(C)CC1CCC2(CN(OCc3ccccc3)C2=O)N1 (single isomer, unassigned) [CX] | + (<100%=+) | < 1 | ++ (>100%=++) | < 1 |  |  |  |  | 
23 | CC(C)CN1C(C(N)=O)CCC12CNC2=O (single isomer, unassigned) [DD, 5-isobutyl-1-oxo-2,5-diazaspiro[3.4]octane-6-carboxamide] | + (<100%=+) | < 1 | + (<100%=+) | < 1 |  |  |  |  | 
24 | NC(=O)C1CCC2(CNC2=O)N1Cc1ccccc1 (single isomer, unassigned) [DF, 5-benzyl-1-oxo-2,5-diazaspiro[3.4]octane-6-carboxamide] |  | < 1 |  | < 1 |  |  |  |  | 
25 | NC(=O)C1CCC2(CNC2=O)N1Cc1ccc(F)cc1 (single isomer, unassigned) [DH, 5-(4-fluorobenzyl)-1-oxo-2,5-diazaspiro[3.4]octane-6-carboxamide] | + (<100%=+) |  | ++ (>100%=++) | < 1 |  |  | < 1 |  | 
26 | O=C1NCC12CN(Cc1ccc(F)cc1)C1(CNC1=O)C2 (single isomer, unassigned) [DK, 10-(4-fluorobenzyl)-2,8,10-triazadispiro[3.1.3^6.2^4]undecane-1,7-dione] | + (<100%=+) |  |  |  |  |  | < 1 | < 1 | < 100
27 | O=C1NCC12CN(Cc1ccc(F)cc1)C1(CNC1=O)C2 (single isomer, unassigned) [DL, 10-(4-fluorobenzyl)-2,8,10-triazadispiro[3.1.3^6.2^4]undecane-1,7-dione] | − (−=0) | < 1 | + (<100%=+) |  |  |  |  | > 100 | 
28 | O=C1NCC12CN(Cc1ccc(F)cc1)C1(CNC1=O)C2 (single isomer, unassigned) [DM, 10-(4-fluorobenzyl)-2,8,10-triazadispiro[3.1.3^6.2^4]undecane-1,7-dione] | + (<100%=+) | < 1 | + (<100%=+) |  |  |  |  | < 1 | 
29 | O=C1NCC12CN(Cc1ccc(F)cc1)C1(CNC1=O)C2 (single isomer, unassigned) [DN, 10-(4-fluorobenzyl)-2,8,10-triazadispiro[3.1.3^6.2^4]undecane-1,7-dione] | + (<100%=+) | < 1 | + (<100%=+) |  |  |  |  | < 1 | 
30 | CC(C)(C)OC(=O)N1C2(CCC13CNC3=O)CNC2=O (stereo not shown) [AA-1, tert-butyl 1,7-dioxo-2,5,8-triazadispiro[3.1.36.24]undecane-5-carboxylate] | − (−=0) |  |  |  |  |  | > 100 | > 100 | 0
